Data as given in US8501772B2, “3,8-diaminotetrahydroquinoline derivative” (Zeria Pharmaceutical Co., Ltd., priority 2008, dated 2013).
Structures can show the parent of a compound that is named as a salt.

Biological target: T1, human GHS-R1a (Homo sapiens, UniProt Q92847)
T1 construct: expressed in transfected cells
Assay: Agonistic activity by use of a cell line stably expressing human GHS-R1a (intracellular calcium increase)
Assay type: cell-based
Conditions: hGHS-R1a/CHO cells, percent increase in intracellular calcium vs 100 nM ghrelin; read-out: GHS-R agonistic activity (EC50: nM)
Method: CHO-K1 cells were transfected with human GHS-R1a genes, to thereby provide cells stably expressing GHS-R1a (hGHS-R1a/CHO), and the agonistic activity of each compound was evaluated by use of the cells based on percent increase in intracellular calcium as an index.
The hGHS-R1a/CHO cells were inoculated at 6×10^4 cells/well in a 96-well plate (Clear bottom/Black plate, product of Corning), and cultured in Ham's F12 medium containing 10% fetal bovine serum at 37° C. and 5% CO2 for 18 hours. After culture, the medium was removed, and then the hGHS-R1a/CHO cells were cultured for two hours in a Hanks' balanced salt solution/HEPES (HBSS/HEPES, 100 μL) containing a calcium fluorescent indicator (4 μM Fluo-3AM, product of Dojin), 2 mM Probenecid, 0.1% Pluronic F-127, and 0.1% BSA, whereby the indicator was incorporated into the cells. After washing the cells, HBSS/HEPES (175 μL/well) containing 2 mM Probenecid and 0.1% BSA was added to the plate, and the fluorescence before and after addition of each test compound was determined by means of FLEXstation (Ex: 485 nm, Em: 525 nm, product of Molecular Devices). Each test compound was multi-fold diluted with dimethyl sulfoxide and then diluted with HBSS/HEPES containing 2 mM Probenecid, 0.04% Pluronic F-127, and 0.1% BSA, to thereby attain a final concentration of interest. The thus-diluted solution (25 μL/well) was added to the wells.
Agonistic activity(%)=(A−B)/(C−D)×100
A: Fluorescence intensity after addition of test compound
B: Fluorescence intensity before addition of test compound
C: Fluorescence intensity after addition of 100 nM ghrelin
D: Fluorescence intensity before addition of ghrelin

T1 sequence (Q92847 whole entry): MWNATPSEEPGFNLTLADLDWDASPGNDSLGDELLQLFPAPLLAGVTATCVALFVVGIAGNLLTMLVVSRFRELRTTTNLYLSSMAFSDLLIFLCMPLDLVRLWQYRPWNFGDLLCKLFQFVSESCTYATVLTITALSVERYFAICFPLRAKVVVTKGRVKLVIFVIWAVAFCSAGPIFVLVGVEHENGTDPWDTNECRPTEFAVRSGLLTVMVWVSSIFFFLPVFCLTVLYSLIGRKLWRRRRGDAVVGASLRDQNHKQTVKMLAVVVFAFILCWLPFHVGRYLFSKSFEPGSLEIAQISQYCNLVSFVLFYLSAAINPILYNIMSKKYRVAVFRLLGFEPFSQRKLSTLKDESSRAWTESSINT

Row | EC50 | SMILES
1 | 0.052 nM | Cn1cc(C[C@@H](NC(=O)C(C)(C)N)C(=O)NC2Cc3cccc(N4CCCC4=O)c3N(Cc3ccsc3)C2=O)c2ccccc21 (stereo partly drawn) [Example 34b, 2-amino-2-methyl-N-[(2R)-3-(1-methyl-1H-indol-3-yl)-1-oxo-1-[2-oxo-8-(2-oxopyrrolidin-1-yl)-1-(thiophen-3-ylmethyl)-1,2,3,4-tetrahydroquinolin-3-ylamino]propan-2-yl]propanamide hydrochloride]
2 | 0.02 nM | CCn1cc(C[C@@H](NC(=O)C(C)(C)N)C(=O)NC2Cc3cccc(N4CCCC4=O)c3N(Cc3ccsc3)C2=O)c2ccccc21 (stereo partly drawn) [Example 34c, 2-amino-N-[(2R)-3-(1-ethyl-1H-indol-3-yl)-1-oxo-1-[2-oxo-8-(2-oxopyrrolidin-1-yl)-1-(thiophen-3-ylmethyl)-1,2,3,4-tetrahydroquinolin-3-ylamino]propan-2-yl]-2-methylpropanamide hydrochloride]
3 | 0.22 nM | CC(C)(N)C(=O)N[C@H](Cc1cn(CCF)c2ccccc12)C(=O)NC1Cc2cccc(N3CCCC3=O)c2N(Cc2ccsc2)C1=O (stereo partly drawn) [Example 34d, 2-amino-N-[(2R)-3-[1-(2-fluoroethyl)-1H-indol-3-yl]-1-oxo-1-[2-oxo-8-(2-oxopyrrolidin-1-yl)-1-(thiophen-3-ylmethyl)-1,2,3,4-tetrahydroquinolin-3-ylamino]propan-2-yl]-2-methylpropanamide hydrochloride]
4 | 0.07 nM | CCCn1cc(C[C@@H](NC(=O)C(C)(C)N)C(=O)NC2Cc3cccc(N4CCCC4=O)c3N(Cc3ccsc3)C2=O)c2ccccc21 (stereo partly drawn) [Example 34e, 2-amino-2-methyl-N-[(2R)-1-oxo-1-[2-oxo-8-(2-oxopyrrolidin-1-yl)-1-(thiophen-3-ylmethyl)-1,2,3,4-tetrahydroquinolin-3-ylamino]-3-(1-propyl-1H-indol-3-yl)propan-2-yl]propanamide hydrochloride]
5 | 1.13 nM | CC(C)n1cc(C[C@@H](NC(=O)C(C)(C)N)C(=O)NC2Cc3cccc(N4CCCC4=O)c3N(Cc3ccsc3)C2=O)c2ccccc21 (stereo partly drawn) [Example 34f, 2-amino-N-[(2R)-3-(1-isopropyl-1H-indol-3-yl)-1-oxo-1-[2-oxo-8-(2-oxopyrrolidin-1-yl)-1-(thiophen-3-ylmethyl)-1,2,3,4-tetrahydroquinolin-3-ylamino]propan-2-yl]-2-methylpropanamide hydrochloride]

Second part, the compound before the results:

Row | SMILES | EC50
6 | CC(C)C[C@@H](NC(=O)C(C)(C)N)C(=O)NC1Cc2ccccc2N(Cc2ccccc2)C1=O (stereo partly drawn) [Comp. Ex. 1, (2R)-2-(2-Amino-2-methylpropanamido)-N-(1-benzyl-2-oxo-1,2,3,4-tetrahydroquinolin-3-yl)-4-methylpentanamide hydrochloride, reference compound] | 149 nM
7 | CC(C)C[C@@H](NC(=O)[C@H](C)N)C(=O)NC1Cc2cccc(N3CCCC3=O)c2N(Cc2ccsc2)C1=O (stereo partly drawn) [Example 25h, (2R)-2-((S)-2-aminopropanamido)-4-methyl-N-[2-oxo-8-(2-oxopyrrolidin-1-yl)-1-(thiophen-3-ylmethyl)-1,2,3,4-tetrahydroquinolin-3-yl]pentanamide] | 6.13 nM
8 | CC[C@](C)(N)C(=O)N[C@H](CC(C)C)C(=O)NC1Cc2cccc(N3CCCC3=O)c2N(Cc2ccsc2)C1=O (stereo partly drawn) [Example 25j, (2R)-2-((S)-2-amino-2-methylbutanamido)-4-methyl-N-[2-oxo-8-(2-oxopyrrolidin-1-yl)-1-(thiophen-3-ylmethyl)-1,2,3,4-tetrahydroquinolin-3-yl]pentanamide] | 4.13 nM
9 | CC(C)(N)C(=O)N[C@H](Cc1c[nH]c2ccccc12)C(=O)NC1Cc2cccc(N3CCCC3=O)c2N(Cc2ccsc2)C1=O (stereo partly drawn) [Example 25l, N-[(2R)-3-(1H-indol-3-yl)-1-oxo-1-[2-oxo-8-(2-oxopyrrolidin-1-yl)-1-(thiophen-3-ylmethyl)-1,2,3,4-tetrahydroquinolin-3-ylamino]propan-2-yl]-2-amino-2-methylpropanamide] | < 0.1 nM
